Measurements published in PubChem BioAssay AID2305 (GlaxoSmithKline (GSK), 2010).

Test system: P. falciparum 3D7 growth, pLDH absorbance
Test: P. falciparum 3D7 growth inhibition, dose response, strain 3D7 (AID 2305)

Point of comparison: `CCCc1ccc(N2C(N)=NC(N)=NC2(C)C)cc1`, IC50 30 nM. Against it:
- O=C(C1CCN(c2nnnn2-c2ccccc2)CC1)N1CCc2ccccc2C1 — 24-fold higher, 710 nM
- O=C(Nc1ccc(Cl)cc1)Nc1cccc(-c2cc(CNCCc3ccccc3)oc2-c2ccncc2)c1 — 9.3-fold higher, 280 nM
- Oc1ccc(CCCNc2nc(NCc3ccccc3-c3ccccc3)nc(N3CCNCC3)n2)cc1 — 24-fold higher, 710 nM
- O=S(=O)(NCCN1CCCC1)c1ccc(-c2ccc(CNC3Cc4ccccc4C3)cc2)s1 — 20-fold higher, 590 nM
- CCN(CC)CCN(Cc1ccc(-c2ccc(C(F)(F)F)cc2)cc1)C(=O)Cn1cc(CCCc2cccc(F)c2F)c(=O)c2ccccc21 — 35-fold higher, 1060 nM
- O=C(Nc1cc(F)cc(F)c1)N1CCOC(CCN2CCC3(CCc4ccccc43)CC2)(c2ccc(Cl)c(Cl)c2)C1 (stereo not drawn) — 9.3-fold higher, 280 nM
- Cc1[nH]c(C)c(-c2ccc(C(F)(F)F)cc2)c(=O)c1Br — 4.7-fold higher, 140 nM
- Cc1cccc2[nH]c(-c3ccc(-c4cccc(CNCCc5ccncc5)c4)s3)nc12 — 4.7-fold higher, 140 nM
- CCCCNCCOc1ccc(-c2nc(-c3ccccc3)c(-c3ccccc3)[nH]2)cc1 — 23-fold higher, 680 nM
- Cc1cc(Cl)c(S(=O)(=O)NC2CCCC2)cc1OCC(=O)NC1CCCCC1 — 13-fold higher, 380 nM
- c1ccc2cc3c(Nc4ccc(N5CCCCC5)cc4)ccnc3cc2c1 — 25-fold higher, 740 nM
- CS(=O)(=O)CCNCc1cccc(-c2cc3c(Nc4ccc(OCc5cccc(F)c5)c(Cl)c4)ncnc3s2)c1 — 6.7-fold higher, 200 nM
- Cc1cccn2c(=O)c3cc(C(=O)NC4CCCCC4)c(=N)n(CCCn4ccnc4)c3nc12 — 25-fold higher, 750 nM
- Nc1ccc2nc(C=Cc3ccc(Cl)cc3)[nH]c2c1 — 31-fold higher, 940 nM
- COCCCn1c(=N)c(C(=O)NCCc2ccc(OC)cc2)cc2c(=O)n3cccc(C)c3nc21 — 34-fold higher, 1030 nM
- CCOc1ccc2nc3cc(N)ccc3c(N)c2c1 — 18-fold higher, 530 nM
- CCOC(=O)c1cnc2c(OC)cc(OC)c(Cl)c2c1Nc1cccc(C)c1 — 28-fold higher, 840 nM
- CCCCCCNC(=O)C1Cc2c([nH]c3ccc(Br)cc23)C2(CCN(CCc3ccccc3)CC2)N1 (stereo not drawn) — 26-fold higher, 790 nM
- COC(=O)c1cccc(CNCc2cccc(-c3ccc(-c4nc5c(C)cccc5[nH]4)cc3)c2)c1 — 11-fold higher, 320 nM
- COc1ccc2c(NN=Cc3cccnc3)cc(C)nc2c1 — 33-fold higher, 990 nM
- Cc1cc(-c2cccc(CNC3CCN(C)CC3)c2)ccc1S(=O)(=O)NCc1ccccc1 — 27-fold higher, 820 nM
- CCOc1cccc(C(=O)Nc2ccc(-c3nc4ccccc4[nH]3)cc2)c1 — 34-fold higher, 1010 nM
- CN(c1ccc(C(=O)N[C@@H](CCC(=O)O)C(=O)O)cc1)S(=O)(=O)c1ccc2nc(N)[nH]c(=O)c2c1 — 5-fold higher, 150 nM
- O=S(=O)(c1ccccc1C(F)(F)F)C1C[C@H]2CC[C@@H](C1)N2S(=O)(=O)c1ccc(Cl)c(C(F)(F)F)c1 (stereo partly drawn) — 24-fold higher, 710 nM
- O=C(CCc1cnc[nH]1)Nc1cccc(-c2ccc(-c3nc4ccc(F)cc4[nH]3)s2)c1 — 19-fold higher, 560 nM
- COc1cc(OC)nc(C(Sc2ccc(NC(=O)c3cccs3)cc2)c2ccccc2)n1 (stereo not drawn) — 2-fold higher, 60 nM
- COC(=O)C(C)(C)c1ccc(CC(C)NCC(O)c2cccc(C(F)(F)F)c2)cc1 (stereo not drawn) — 28-fold higher, 840 nM
- C[C@H](Cc1ccc(OCCCCCCOc2ccccc2)cc1)NC[C@@H](O)c1cc(Br)no1 — 29-fold higher, 880 nM
- O=C(Cc1cccs1)NCC(c1ccccc1Cl)c1c[nH]c2ccccc12 (stereo not drawn) — 38-fold higher, 1150 nM
- O=C(Nc1nccs1)c1cc(-c2cccnc2)nc2ccc(Br)cc12 — 13-fold higher, 400 nM
- COc1ccc(CNC(=O)NC2CCN(c3ccnc(Nc4ccc(F)cc4)n3)C2)cc1 (stereo not drawn) — 28-fold higher, 840 nM
- Clc1ccc(Cc2nc3ccccc3[nH]2)cc1Cl — 8.3-fold higher, 250 nM
- CNC(=O)CC(=O)NCCc1ccc(Cl)cc1 — 27-fold higher, 810 nM
- N#Cc1ccc(N(CCOc2ccc(Cl)c(F)c2)Cc2ccccc2C(F)(F)F)cc1C(F)(F)F — 23-fold higher, 680 nM
- ON=C1CCc2cc(-c3nc(-c4ccc(OCCN5CCCCC5)cc4)[nH]c3-c3ccncc3)ccc21 — 27-fold higher, 800 nM
- C=Cc1c(C2CCN(CCCCNC(=O)c3ccc(-c4ccc(C#N)cc4)cc3)CC2)ccc2c1CCCC2 — 29-fold higher, 880 nM
- O=C1CCCN1CCCNCc1ccc(-c2ccc(-c3nc4ccc(F)cc4[nH]3)cc2)cc1 — 20-fold higher, 600 nM
- COc1ccc2nccc([C@@H](O)CN3CCC(NCc4nc5ccc(F)cc5[nH]4)CC3)c2c1 — 24-fold higher, 730 nM
- Cc1ccnc(NC(c2cccc(OCc3ccccc3)c2)c2ccc3cccnc3c2O)c1 (stereo not drawn) — 29-fold higher, 860 nM
- Cc1cccc(C)c1NC1=NC(=S)N(c2cccc(Cl)c2)C12CCC(C(C)(C)C)CC2 (stereo not drawn) — 25-fold higher, 760 nM
- Cc1cnc(-c2ccc(NC(=O)N3CCc4cc5nccc(N6CCN7CCC[C@H]7C6)c5cc43)c3ccccc23)o1 — 29-fold higher, 860 nM
- COc1ccc(Br)cc1C1Nc2ccc3ccccc3c2C2=C1C(=O)CC(c1ccccc1)C2 (stereo not drawn) — 20-fold higher, 590 nM
- CC(=O)Nc1cccc(CNCc2ccc(-c3cnc(N4CCCC(C)(C)C4)nc3)cc2)c1 — 27-fold higher, 820 nM
- CC[C@H](C)[C@@H](C(=O)N1CCOCC1)N1CC[C@H](NS(=O)(=O)CC(C)(C)c2ccc(Cl)cc2)C1=O — 18-fold higher, 550 nM
- CC(CCc1ccccc1)NCC(O)c1ccc2c3c(cccc13)S(=O)(=O)N2C (stereo not drawn) — 21-fold higher, 630 nM
- COc1csc2cc(Br)ccc12 — 29-fold higher, 860 nM
- FC(F)(F)c1ccc2c(C=Cc3ccncc3)c[nH]c2c1 — 24-fold higher, 710 nM
- Cc1cc(N(C)C)nc(Nc2ccc(NC(=O)Nc3ccccc3)cc2)n1 — 4.3-fold higher, 130 nM
- O=C(CC1SC(N2N=C(c3cccs3)CC2c2ccccc2)=NC1=O)Nc1ccc(Cl)cc1 (stereo not drawn) — 56-fold higher, 1680 nM
- CC(=O)Nc1nc(C(=O)Nc2ccc(-c3cccc(-c4nc5c(C)cccc5[nH]4)c3)cc2)cs1 — 7.7-fold higher, 230 nM
- CC1(C)CCNc2cc(NC(=O)c3ccc(-c4ncccc4C(F)(F)F)cc3)ccc21 — 30-fold higher, 900 nM
- COc1ccc2nccc([C@@H](O)CN3CCC(CO)(NCc4cc5ccccc5o4)CC3)c2c1 — 46-fold higher, 1370 nM
- Cc1cccc2[nH]c(-c3ccc(-c4ccc(CN5CCN(c6cnccn6)CC5)cc4)s3)nc12 — 25-fold higher, 750 nM
- Cn1cncc1-c1ccc2ncnc(Nc3ccc4c(cnn4Cc4ccccc4)c3)c2c1 — 6-fold higher, 180 nM
- COc1ccc(CN2CCN(CCOC(c3ccccc3)c3ccccc3)CC2)c(O)c1 — 40-fold higher, 1190 nM
- Cc1cc(C2CCN(CCCCNC(=O)c3ccc(NC(=O)c4ccc(Cl)cc4)cc3)CC2)c(C)cc1OCc1cccnc1 — 20-fold higher, 600 nM
- CCCCC1(c2ccc(F)cc2)NC(=O)N(CC(=O)c2cc(C)n(Cc3ccco3)c2C)C1=O (stereo not drawn) — 33-fold higher, 980 nM
- O=C(Cc1ccc(NC(=O)c2ccc(O)c(-c3ccc(Cl)c(Cl)c3)c2)cc1)NCCN1CCOCC1 — 27-fold higher, 810 nM
- O=C(Nc1cccc(Cl)c1)N[C@H]1CCN(Cc2ccc(OCCCN3CCCCC3)cc2)C1 — 24-fold higher, 730 nM
- CCCCN(CCCC)CCNC(=O)c1cc(OC(F)(F)F)ccc1O — 31-fold higher, 920 nM
- COc1ccc(Cc2cccc(C(C(=O)NCc3cc(Cl)cc(Cl)c3)N3CCN(C)CC3)c2)cc1 (stereo not drawn) — 23-fold higher, 690 nM
- Cc1cccc2[nH]c(-c3cccc(-c4ccc(NC(=O)c5cnc[nH]5)cc4)c3)nc12 — 24-fold higher, 720 nM
- Cc1cc(C2CCN(CCCCNC(=O)c3ccc(-c4ccc(C(F)(F)F)cc4)cc3)CC2)c(C)cc1OCC(N)=O — 27-fold higher, 800 nM
- NC(N)=NN=Cc1ccc2c(c1)Cc1ccccc1-2 — 20-fold higher, 590 nM
- COc1ccc(C2SCC(=O)N2CCc2ccc(OC)c(OC)c2)cc1 (stereo not drawn) — 10-fold higher, 310 nM
- COc1ccc(S(=O)(=O)N2CCOCC2)cc1NC(=O)c1cc2ccccc2o1 — 26-fold higher, 790 nM
- CCc1ccc(CN2CCCCC(NC(=O)c3cc(-c4ccccc4F)cs3)C2)cc1 (stereo not drawn) — 39-fold higher, 1160 nM
- C#Cc1cccc(NC(=O)[C@H](CC2CCCCC2)Nc2ccc(C#N)c3ccccc23)c1 — 20-fold higher, 590 nM
- CCc1c(C)nc(-n2nc(C)cc2NC(=O)c2ccc(OC)cc2OC)[nH]c1=O — 28-fold higher, 830 nM
- COC(=O)c1cccc(OCCNC2CCN(C[C@H](O)c3ccnc4ccc(OC)cc34)CC2)c1 — 11-fold higher, 340 nM
- Cc1cccc(CNc2nc(C)cc(N[C@@H](Cc3ccccc3)C(=O)NCc3cccc(F)c3)n2)c1 — 35-fold higher, 1040 nM
- CCn1c(-c2nonc2N)nc2cnc(Oc3cccc(NC(=O)c4ccc(OCCCN5CCCCC5)cc4)c3)cc21 — 31-fold higher, 930 nM
- O=C(Nc1cc(F)cc(-c2cccnc2)c1)c1ccc2c(=O)n(Cc3ccccc3)cnc2c1 — 44-fold higher, 1330 nM
- C=C(C)CSc1nc2c(c(=O)n1Cc1ccco1)C1(CCCCC1)Cc1ccccc1-2 — 33-fold higher, 1000 nM
- O=C(Nc1ccc(-c2cccc(-c3nc4ccccc4[nH]3)c2)cc1)Nc1ccsc1 — 8.3-fold higher, 250 nM
- O=C(Nc1ccc2c(c1)CCC2)c1cnc(N2CCN(c3ccncc3)CC2)c(Cl)c1 — 37-fold higher, 1110 nM
- O=C(NC1CCN(CCN2CCC(c3ccccc3C(F)(F)F)CC2)CC1)c1ccc(-c2ccc(Cl)cc2)cc1 — 24-fold higher, 710 nM
- CCN(CC)c1cc(C)c2cc(NC(=O)c3cc(=O)c4ccccc4o3)ccc2n1 — 7.3-fold higher, 220 nM
- Cc1c2c(nn1-c1ccccc1)C(c1ccccc1)N(c1ccccc1)C2=O (stereo not drawn) — 5-fold higher, 150 nM
- COc1ccc2nccc([C@@H](O)CN3CCC(NC(=O)/C=C/c4ccnc5ccccc45)CC3)c2c1 — 31-fold higher, 940 nM
- O=C(NC1CC1)c1ccc(Nc2nccc(-c3c(-c4cccc(NC(=O)c5c(F)cccc5F)c4)nn4ccccc34)n2)cc1 — 14-fold higher, 410 nM
- COc1ccc(CC(C)NCC(O)c2cccc(Cl)c2)cc1C (stereo not drawn) — 30-fold higher, 900 nM
- O=C(C=CC(=O)N1CCCCC1)NCc1ccccc1 — 24-fold higher, 730 nM
- CN(C)Cc1ccc(-c2ccc3c(Nc4ccc(Oc5ccccn5)cc4)ccnc3c2)o1 — 5.3-fold higher, 160 nM
- O=C(NCCOc1ccccc1)[C@H](Cc1ccccc1)Nc1ccnc(NCC2CCCCC2)n1 — 40-fold higher, 1200 nM
- COc1ccc2nc3cc(Cl)ccc3c(NCCCCNc3c4ccc(Cl)cc4nc4ccc(OC)cc34)c2c1 — 5.3-fold higher, 160 nM
- O=C(NCC1CCN(Cc2cccc(F)c2)C1)c1cc(-c2cccc(C(F)(F)F)c2)cs1 (stereo not drawn) — 33-fold higher, 990 nM
- Nc1nc(N)c2c(ccc3c2ccn3CC2CC2)n1 — 7-fold higher, 210 nM
- C=CCc1ccc(C[C@H](NC(=O)OC(C)(C)C)C(=O)OC)cc1 — 27-fold higher, 810 nM
- O=C(CN(c1cccc(C(F)(F)F)c1)S(=O)(=O)c1ccc(Cl)cc1)NCCC(c1ccccc1)c1ccccc1 — 25-fold higher, 740 nM
- O=C(Nc1cccc(CN2CCCN(Cc3ccc4c(c3)OCO4)CC2)c1)c1ccc(-c2ccccc2)cc1 — 22-fold higher, 650 nM
- COc1cccc(C=CC(=O)N(CCN)Cc2ccccc2)c1 — 27-fold higher, 820 nM
- c1cncc(CN2CCCN(c3ccc4c(c3)CCN(Cc3ccc(-c5ncc[nH]5)cc3)CC4)CC2)c1 — 25-fold higher, 750 nM
- CN(C)C(CNc1ncnc2cc(Cl)ccc12)Cc1ccccc1 (stereo not drawn) — 29-fold higher, 870 nM
- Cc1c(C(=O)N[C@@H](C)c2ccccc2)c2cc(O)c(Br)cc2n1C1CCCCC1 — 28-fold higher, 840 nM
- CCC[C@@H]([C@@H](CC1CCCCC1)C(=O)N[C@@H](CCOC(=O)NCC)C(=O)Nc1nccs1)N(O)C=O — 2.7-fold higher, 80 nM
- CO/C(=C\C=C\c1cc2cc(Cl)c(Cl)cc2[nH]1)C(=O)NCCCN1CCN(c2cccc(O)c2)CC1 — 19-fold higher, 580 nM
